Source: patent US6677336B2, “Substituted piperazine compounds” (CV Therapeutics, Inc., priority 2000, dated 2004)

Key:
[1] = test system: mitochondrial fatty acid oxidation (rat heart mitochondria); experiment: Palmitoyl CoA oxidation in isolated rat heart mitochondria; type: biochemical; settings: 15 min at 30° C, DMSO control
Method: Compounds of this invention were evaluated in a rat heart mitochondiral assay as set forth below.
(§1) Rat heart mitochondria were isolated by the method of Nedergard and Cannon (methods in Enzymol. 55, 3, 1979).
Palmitoyl CoA oxidation—The Palmityl CoA oxidation was carried out in a total volume of 100 micro liters containing the following agents: 110 mM KCl, 33 mM Tris buffer at pH 8, 2 mM KPi, 2 mM MgCl2, 0.1 mM EDTA, 14.7 microM defatted BSA, 0.5 mM malic acid, 13 mM carnitine, 1 mM ADP, 52 micrograms of mitochondrial protein, and 16 microM 1-C14 palmitoyl CoA (Sp. Activity 60 mCi/mmole; 20 microCi/ml, using 5 microliters per assay). The compounds of this invention were added in a DMSO solution at the following concentrations: 100 microM, 30 microM, and 3 microM. In each assay, a DMSO control was used. After 15 min at 30° C., the enzymatic reaction was centrifuged (20,000 g for 1 min), and 70 microliters of the supernatant was added to an activated reverse phase silicic acid column (approximately 0.5 ml of silicic acid). The column was eluted with 2 ml of water, and 0.5 ml of the eluent was used for scintillation counting to determine the amount of C^14 trapped as C^14 bicarbonate ion.

[2] = test system: mitochondrial fatty acid oxidation (rat heart mitochondria); experiment: Palmitoyl carnitine oxidation in isolated rat heart mitochondria; type: biochemical; settings: 15 min at 30° C, DMSO control
Method: as §1
The Palmitoyl carnitine oxidation was carried out in a total volume of 100 microliters containing the following agents: 110 mM KCl, 33 mM Tris buffer at pH 8, 2 mM KPi, 2 mM MgCl2, 0.1 mM EDTA, 0.1 mg/ml of defatted BSA, 0.5 mM malic acid, 3 mM ADP, 52 micrograms of mitochondrial protein, and 43 microM 1-C14 palmitoyl carnitine (Sp. Activity 60 mCi/mmole; 20 microCi/ml, using 5 microliters per assay). The compounds of this invention were added in a DMSO solution at the following concentrations: 100 microM, 30 microM, and 3 microM. In each assay, a DMSO control was used. After 15 min at 30° C., the enzymatic reaction was centrifuged (20,000 g for 1 min), and 70 microliters of the supernatant was added to an activated reverse phase silicic acid column (approximately 0.5 ml of silicic acid). The column was eluted with 2 ml of water, and 0.5 ml of the eluent was used for scintillation counting to determine the amount of C^14 trapped as C^14 bicarbonate ion. The data are presented as % activity of control in Table 3, below.

[3] = Metabolic stability in human liver S-9 fractions; settings: human liver S9, 30 min at 37 C; for Liver S9 Parent Present relative to Ranolazine: 10 μM, % parent remaining divided by average % ranolazine remaining (57%)
Method: After, 30 minutes at 37 C, the amount of parent drug remaining was determined using LC-mass spec. The response factors for each compound was determined by establishing a standard curve and using an internal standard during the analysis of the samples. […] The compounds of this invention were assayed as described in the protocol below and the percentage of parent remaining was divided by the average % of ranolazine remaining (57%) affording a metabolic stability factor.
The purpose of this experiment is to compare the percentages remaining for compounds of this invention with the percentage remaining for ranolazine after 30 minutes of incubation with human liver S9 fractions.
The following reagents were used; Potassium phosphate, 0.5M pH 7.4 (incubation buffer), kept at room temperature; 0.05M MgCl2 kept at 4° C.; P-Nicotinamide adenine dinucleotide phosphate, tetrasodium salt, reduced form (NADPH), 0.02M solution in water (˜16.6mg/mL) from Sigma Lot #79H7044 prepared on day of use. 1 mM of ranolazine or Compounds 43, 45, 47, 52, 70, 74, 76, 78, and 80 in ACN further diluted to obtain 100 μM in 10% ACN; Human S9 stock: 20 mg/mL from Gentest.
Incubation mixtures were prepared as follows:
Combine all components with incubation buffer and re-pipette 200 μL/tube+25 μL of the compound being tested along with 25 μL of S-9.
After 5 min of pre-incubation at 37° C., at 0 and 30 min after starting the reaction, a 50 μl aliquot of the incubation mixture was removed and added to 100 μL of 9:1 acetonitrile: methanol containing the internal standard.
The mixture was centrifuged and a 100 μL aliquot of the supernatant was diluted in 1 mL of solvent C (0.1% Formic Acid in water). Then samples were analyzed for change between the ratio of compound to internal standard at time zero and 30 minutes by LC/MS (injected 10 EL).
Samples were analyzed for the starting compounds and potential metabolite/s by LC/MS using an internal standard and an ODS-C18 column with a flow rate of 0.25 ml/min.

Row | SMILES | Inhibition of mitochondrial fatty acid oxidation using palmitoyl CoA as substrate - % of Control ([1]; 30 μM compound) | Inhibition of mitochondrial fatty acid oxidation using palmitoyl CoA as substrate - % of Control ([1]; 100 μM compound) | Inhibition of mitochondrial fatty acid oxidation using palmitoyl carnitine as substrate - % of Control ([2]; 100 μM compound) | further results
1 | COc1ccccc1OCC(O)CN1CCN(CC(=O)Nc2c(C)cccc2C)CC1 (racemic) [Ranolazine, (±)-N-(2,6-dimethylphenyl)-4-[2-hydroxy-3-(2-methoxyphenoxy)-propyl]-1-piperazineacetamide, reference compound] | 90% | 75% | 63% | Inhibition of mitochondrial fatty acid oxidation using palmitoyl carnitine as substrate - % of Control ([2]; 30 μM compound): 98%; Liver S9 Parent Present relative to Ranolazine [3]: 1.0; percentage of parent drug remaining at the 30 minute time point ([3]; average of five experiments): 57%
2 | COc1ccccc1OCC(O)CN1C(C)CN(CC(=O)Nc2c(C)cccc2C)CC1C (stereo not shown) [Compound 7, N-(2,6-dimethylphenyl)-2-{4-[2-hydroxy-3-(2-methoxy)propyl]-3,5-dimethylpiperazinyl}acetamide] | 98% | 85% | 95% | Inhibition of mitochondrial fatty acid oxidation using palmitoyl CoA as substrate - % of Control ([1]; 3 μM compound): 107%; Inhibition of mitochondrial fatty acid oxidation using palmitoyl carnitine as substrate - % of Control ([2]; 3 μM compound): 109%; Inhibition of mitochondrial fatty acid oxidation using palmitoyl carnitine as substrate - % of Control ([2]; 30 μM compound): 102%
3 | COc1ccccc1OCC(O)CN1C[C@@H](C)N(CC(=O)Nc2c(C)cccc2C)C[C@@H]1C (stereo partly drawn) [Compound 15, 2-{(5S,2R)-4-[2-hydroxy-3-(2-methoxyphenoxy)propyl]-2,5-dimethylpiperazinyl}-N-(2,6-dimethylphenyl)acetamide] | 97% | 78% | 82% | Inhibition of mitochondrial fatty acid oxidation using palmitoyl CoA as substrate - % of Control ([1]; 3 μM compound): 103%; Inhibition of mitochondrial fatty acid oxidation using palmitoyl carnitine as substrate - % of Control ([2]; 3 μM compound): 106%; Inhibition of mitochondrial fatty acid oxidation using palmitoyl carnitine as substrate - % of Control ([2]; 30 μM compound): 98%; Liver S9 Parent Present relative to Ranolazine [3]: 1.20
4 | COc1ccccc1OCC(O)CN1CCN(CC(=O)Nc2c(C)cccc2C)C(=O)C1 (stereo not shown) [Compound 16, N-(2,6-dimethylphenyl)-2-{4-[2-hydroxy-3-(2-methoxyphenoxy)propyl]-2-oxopiperazinyl}acetamide] | 96% | 100% | 64% | Liver S9 Parent Present relative to Ranolazine [3]: 0.15
5 | COc1ccccc1OCC(O)CN1CCN(CC(=O)Nc2c(C)cccc2C)C2CCCCC21 (stereo not shown) [Compound 17] | 98% | 89% | 80% | Inhibition of mitochondrial fatty acid oxidation using palmitoyl CoA as substrate - % of Control ([1]; 3 μM compound): 100%; Inhibition of mitochondrial fatty acid oxidation using palmitoyl carnitine as substrate - % of Control ([2]; 3 μM compound): 103%; Inhibition of mitochondrial fatty acid oxidation using palmitoyl carnitine as substrate - % of Control ([2]; 30 μM compound): 88%; Liver S9 Parent Present relative to Ranolazine [3]: 0.45
6 | COc1ccccc1OCC(O)CN1CCN(CC(=O)Nc2c(C)cccc2C)CC1(C)C (stereo not shown) [Compound 18, N-(2,6-dimethylphenyl)-2-{4-[2-hydroxy-3-(2-methoxyphenoxy)propyl]-3,3-dimethylpiperazinyl}acetamide] |  | 80% | 17% | 
7 | Cc1cccc(C)c1NC(=O)CN1CCN(CC(O)CCOc2ccc(C(C)(C)C)cc2)CC1 (stereo not shown) [Compound 22] |  | 16% | 25% | 
8 | C[C@H]1CN(CC(=O)Nc2ccc(C(F)(F)F)cc2)CCN1C[C@H](O)COc1ccccc1F [Compound 54, 2-{(3S)-4-[(2S)-3-(2-fluorophenoxy)-2-hydroxypropyl]-3-methylpiperazinyl}-N-[4-(trifluoromethyl)phenyl]acetamide] |  | 75% |  | 
9 | C[C@H]1CN(CC(=O)Nc2ccc(Cl)c(C(F)(F)F)c2)CCN1C[C@H](O)COc1ccccc1F [Compound 55, 2-{(3S)-4-[(2S)-3-(2-fluorophenoxy)-2-hydroxypropyl]-3-methylpiperazinyl}-N-[4-chloro-3-(trifluoromethyl)phenyl]acetamide] |  | 11% |  | 
10 | COc1cc(NC(=O)CN2CCN(C[C@H](O)COc3ccccc3F)[C@@H](C)C2)cc(OC)c1 [Compound 56, 2-{(3S)-4-[(2S)-3-(2-fluorophenoxy)-2-hydroxypropyl]-3-methylpiperazinyl}-N-(3,5-dimethoxyphenyl)acetamide] |  | 83% |  | 
11 | C[C@H]1CN(CC(=O)Nc2ccc(N3CCOCC3)cc2)CCN1C[C@H](O)COc1ccccc1F [Compound 57, 2-{(3S)-4-[(2S)-3-(2-fluorophenoxy)-2-hydroxypropyl]-3-methylpiperazinyl}-N-(4-morpholin-4-ylphenyl)acetamide] |  | 73% |  | 
12 | COc1ccc(NC(=O)CN2CCN(C[C@H](O)COc3ccccc3F)[C@@H](C)C2)cc1F [Compound 58, 2-{(3S)-4-[(2S)-3-(2-fluorophenoxy)-2-hydroxypropyl]-3-methylpiperazinyl}-N-(3-fluoro-4-methoxyphenyl)acetamide] |  | 81% |  | 
13 | COc1cc(NC(=O)CN2CCN(C[C@H](O)COc3ccccc3F)[C@@H](C)C2)cc(OC)c1OC [Compound 59, 2-{(3S)-4-[(2S)-3-(2-fluorophenoxy)-2-hydroxypropyl]-3-methylpiperazinyl}-N-(3,4,5-trimethoxyphenyl)acetamide] |  | 76% |  | 
14 | COc1ccc(NC(=O)CN2CCN(C[C@H](O)COc3ccccc3F)[C@@H](C)C2)cc1OC [Compound 60, 2-{(3S)-4-[(2S)-3-(2-fluorophenoxy)-2-hydroxypropyl]-3-methylpiperazinyl}-N-(3,4-dimethoxyphenyl)acetamide] |  | 81% |  | 
15 | C[C@H]1CN(CC(=O)Nc2ccc(Cl)cc2F)CCN1C[C@H](O)COc1ccccc1F [Compound 61, 2-{(3S)-4-[(2S)-3-(2-fluorophenoxy)-2-hydroxypropyl]-3-methylpiperazinyl}-N-(4-chloro-2-fluorophenyl)acetamide] |  | 65% |  | 
16 | Cc1cccc(CO)c1NC(=O)CN1CCN(C[C@H](O)COc2ccccc2F)[C@@H](C)C1 [Compound 62] |  | 66% |  | 
